Laboratory results: patent publication US9598396B2, “Tetrahydrophenanthridinones and tetrahydrocyclopentaquinolinones as PARP and tubulin polymerization inhibitors” (Janssen Pharmaceutica NV, priority 2008, dated 2017)

Experiments:
Human PARP-1 enzyme = Human PARP-1 enzyme (Homo sapiens (Human), UniProt P09874); assay: In vitro Scintillation Proximity Assay (SPA) for PARP-1 inhibitory activity; type: biochemical; settings: nicked DNA activated PARP-1, [3H]-NAD+, biotinylated histones
Procedure: C.1.In Vitro Scintillation Proximity Assay (SPA) for PARP-1 Inhibitory Activity
Compounds of the present invention were tested in an in vitro assay based on SPA technology (proprietary to GE healthcare).
In principle, the assay relies upon the well established SPA technology for the detection of poly(ADP-ribosyl)ation of biotinylated target proteins, i.e histones. This ribosylation is induced using nicked DNA activated PARP-1 enzyme and [^3H]-nicotinamide adenine dinucleotide ([^3H]-NAD^+) as ADP-ribosyl donor.
Histones (type II-A, supplier: Sigma) were biotinylated using the biotinylation kit of Amersham and stored aliquoted at −20° C. A stock solution of 100 mg/ml SPA poly(vinyl toluene) (PVT) beads (supplier: Amersham) was made in PBS. A stock solution of 61.6 nM […] was made by adding [^3H]-NAD^+ (0.1 mCi/ml, supplier: Perkin Elmer) to incubation buffer (50 mM Tris/HCl, pH 8; 0.2 mM DTT; 4 mM MgCl2). A solution of 4 mM NAD^+ (supplier: Sigma) was made. Human PARP-1 enzyme was obtained from Trevigen. Biotinylated histones and PVT-SPA beads were mixed and pre-incubated for 30 minutes at room temperature. PARP-1 enzyme (concentration was lot dependent) was mixed with the nicked DNA and the mixture was pre-incubated for 30 minutes at 4° C. Equal parts of this histones/PVT-SPA beads solution and PARP-1 enzyme/DNA solution were mixed and 75 μl of this mixture together with 1 μl of compound in DMSO and 25 μl of [^3H]-NAD^+was added per well into a 96-well microtiterplate. The final concentrations in the incubation mixture were 2 μg/ml for the biotinylated histones, 2 mg/ml for the PVT-SPA beads, 0.25 μg/ml for the nicked DNA and between 0.1-0.2 μg/ml for the PARP-1 enzyme. After incubation of the mixture for 20 minutes at room temperature, the reaction was terminated by adding 100 μl of 4 mM NAD^+ in water (final concentration 2 mM) and plates were mixed. The beads were sedimented by centrifugation (10 min, 800 rpm) and plates transferred to a TopCountNXT™ (Packard) for scintillation counting, values were expressed as counts per minute (cpm). For each experiment, controls (containing PARP-1 enzyme and DMSO without compound), a blank incubation (containing DMSO but no PARP-1 enzyme, no DNA or compound) and samples (containing PARP-1 enzyme, DNA and compound dissolved in DMSO) were run in parallel. All compounds tested were dissolved and eventually further diluted in DMSO. A dose-response curve was made wherein the compounds were tested at concentrations between 10^−5M and 3×10^−9M. In each test, the blank value was subtracted from both the control and the sample values. The control sample represented maximal PARP-1 enzyme activity. For each sample, the amount of cpm was expressed as a percentage of the mean cpm value of the controls. […] Herein the effects of test compounds are expressed as pIC50 (the negative log value of the IC50-value). As a reference compound, 4-amino-1,8-naphthalimide was included to validate the SPA assay.

TANK-2 enzyme = TANK-2 enzyme (Homo sapiens (Human), UniProt Q9H2K2); assay: In vitro Scintillation Proximity Assay (SPA) for TANK-2 inhibitory activity; type: biochemical; settings: auto-poly(ADP-ribosyl)ation, [3H]-NAD+, Ni flash plates (96 or 384 well)
TANK-2 enzyme, sequence (Q9H2K2 whole entry): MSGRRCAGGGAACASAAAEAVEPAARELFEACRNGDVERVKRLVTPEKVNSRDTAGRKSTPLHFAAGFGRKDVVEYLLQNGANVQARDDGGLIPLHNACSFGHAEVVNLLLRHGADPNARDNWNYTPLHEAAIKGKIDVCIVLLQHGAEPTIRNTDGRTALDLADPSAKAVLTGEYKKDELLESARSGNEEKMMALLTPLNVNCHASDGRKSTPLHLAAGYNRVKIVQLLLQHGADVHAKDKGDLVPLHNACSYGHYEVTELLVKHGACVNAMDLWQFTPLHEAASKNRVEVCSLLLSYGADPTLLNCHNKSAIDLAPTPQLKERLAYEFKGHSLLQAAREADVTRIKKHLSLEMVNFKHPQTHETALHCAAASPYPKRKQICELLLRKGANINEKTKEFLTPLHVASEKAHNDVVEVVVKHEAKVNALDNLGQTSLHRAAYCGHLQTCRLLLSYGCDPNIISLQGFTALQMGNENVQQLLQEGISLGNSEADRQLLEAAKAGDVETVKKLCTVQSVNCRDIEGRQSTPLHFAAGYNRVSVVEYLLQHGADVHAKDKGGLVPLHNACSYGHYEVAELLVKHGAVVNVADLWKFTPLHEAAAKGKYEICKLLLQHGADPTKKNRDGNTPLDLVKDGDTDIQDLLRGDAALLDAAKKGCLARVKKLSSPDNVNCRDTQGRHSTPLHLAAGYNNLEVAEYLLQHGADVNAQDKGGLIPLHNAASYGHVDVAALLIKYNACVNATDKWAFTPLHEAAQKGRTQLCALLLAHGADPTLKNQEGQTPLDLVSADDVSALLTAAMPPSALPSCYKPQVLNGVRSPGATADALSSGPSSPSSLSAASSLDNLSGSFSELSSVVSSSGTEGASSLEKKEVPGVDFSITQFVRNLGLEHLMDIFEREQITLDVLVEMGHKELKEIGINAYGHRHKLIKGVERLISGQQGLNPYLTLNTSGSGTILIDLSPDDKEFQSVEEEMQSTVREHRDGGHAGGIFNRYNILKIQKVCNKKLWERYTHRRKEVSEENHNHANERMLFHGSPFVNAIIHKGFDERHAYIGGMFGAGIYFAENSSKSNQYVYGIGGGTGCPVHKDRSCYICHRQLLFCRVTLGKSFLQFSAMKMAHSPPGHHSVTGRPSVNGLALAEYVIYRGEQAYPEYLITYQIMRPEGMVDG
Procedure: C.2.In Vitro Scintillation Proximity Assay (SPA) for TANK-2 Inhibitory Activity
Compounds of the present invention were tested in an in vitro assay based on SPA technology with Ni Flash plates (96 or 384 well).
In principle, the assay relies upon SPA technology for the detection of auto-poly(ADP-ribosyl)ation of TANK-2 protein using [^3H]-nicotinamide adenine dinucleotide ([^3H]-NAD^+) as ADP-ribosyl donor.
A stock solution of 100 nM [^3H]-NAD^+/NAD (0.1 mCi/ml, supplier: Perkin Elmer) and 25 μM NAD (Sigma) was made in assay buffer (60 mM Tris/HCl, pH 7.4; 0.9 mM DTT; 6 mM MgCl2). The TANK-2 enzyme was produced as described in EP1238063. 60 μl of assay buffer, together with 1 μl of compound in DMSO, 20 μl of [^3H]-NAD^+/NAD and 20 μl of TANK-2 enzyme (final concentration 8 μg/ml) was added per well into a 96-well Ni-coated flash plate (Perkin Elmer). After incubation of the mixture for 120 minutes at room temperature, the reaction was terminated by adding 60 μl of stopsolution (42.6 mg NAD in 6 ml H2O). The plates were covered with a plate sealer and placed in a TopCountNXT™ (Packard) for scintillation counting. Values were expressed as counts per minute (cpm). For each experiment, controls (containing TANK-2 enzyme and DMSO without compound), a blank incubation (containing DMSO but no TANK-2 enzyme or compound) and samples (containing TANK-2 enzyme and compound dissolved in DMSO) were run in parallel. All compounds tested were dissolved and eventually further diluted in DMSO. In first instance, compounds were tested at a concentration of 10^−5M. […] In each test, the blank value was subtracted from both the control and the sample values. The control sample represented maximal TANK-2 enzyme activity. For each sample, the amount of cpm was expressed as a percentage of the mean cpm value of the controls. […] Herein the effects of test compounds are expressed as pIC50 (the negative log value of the IC50-value). As reference compounds, 3-aminobenzamide and 4-amino-1,8-naphtalimide were included to validate the SPA assay. Herein the assay was described using 96-well plates. In the assay using 384-well plates the same final concentrations were used and volumes were adapted.

[1] = system: Human colon carcinoma HCT116 cells; assay: Detection of antiproliferative activity (Alamar Blue assay); type: cell-based; settings: HCT-116, 96 h, 4-day incubation, read-out: Cellular assay HCT116 pIC50 (converted)
Procedure: Example C.4 Detection of Antiproliferative Activity
Human colon carcinoma HCT116 cells obtained from the ATCC were cultured in McCoy's 5A medium supplemented with 2 mM L-Glutamine, 50 μg/ml gentamicin and 10% heat inactivated fetal calf serum.
Reagents used in the Alamar Blue Assay
Resazurin was purchased from Aldrich (Prod. No. 199303). Potassium ferrocyanide, potassium ferricyanide, KH2PO4 and K2HPO4 were purchased from Sigma (Prod. Nos. P9387, P8131, P5655 and P8281, respectively).
Potassium Phosphate Buffer 0.1 M (PPB) was made as follows: 2.72 gram KH2PO4 and 13.86 gram K2HPO4 were dissolved in 500 ml milli-Q H2O, the pH was adjusted to pH 7.4 and the volume was brought to 1 liter with milli-Q H2O; the buffer was filter sterilised and stored at room temperature. Resazurin stock solution (PPB-A) was prepared fresh by dissolving 45 mg resazurin in 15 ml PBS. 30 mM potassium ferricyanide (PPB-B) was prepared by dissolving 0.987 gram potassium ferricyanide in 100 ml PPB. 30 mM potassium ferrocyanide (PPB-C) was prepared by dissolving 1.266 gram potassium ferrocyanide in 100 ml PPB.
Mixture of PPB-A, PPB-B and PPB-C was prepared by mixing equal volumes of the respective solutions. Resazurin work solution (herein termed “Alamar Blue” solution) was prepared by diluting said mixture 20× (vol/vol) in PPB and filter sterilising; the Alamar Blue solution could be kept at 4° C. for a maximum of 2 weeks.
Procedure of the Alamar Blue Assay
For experiments in 384 wells plates the cells were seeded at a density of 4.5×10^3 cells/ml in Falcon 384-well culture plates (Life Technologies, Merelbeke, Belgium), black with clear bottom, in 45 μl culture medium. Cells were allowed to adhere to plastic for 24 hours. The tested compound was pre-diluted (1/50 in culture medium) and 5 μl pre-diluted compound was added to the wells. Following 4-day incubation, 10 μl of the Alamar Blue solution was added to each well and the cells were further incubated for 4 hours (HCT116) or 24 hours (PC-3) at 37° C. The fluorescence intensity was measured for each well on a Fluorescence plate reader (Fluorskan, Labsystems, 540 nm excitation and 590 nm emission)
The antiproliferative activity was calculated as percentage of remaining viable cells in treated versus control (untreated cells) conditions. Within an experiment, the result for each experimental condition is the mean of 3 replicate wells. When appropriate, the experiments were repeated to establish full concentration-response curves. […] Herein the effects of tested compounds are expressed as pIC50 (the negative log value of the IC50 value) (see Table 3).

Human PARP-1 enzyme, sequence (P09874 whole entry): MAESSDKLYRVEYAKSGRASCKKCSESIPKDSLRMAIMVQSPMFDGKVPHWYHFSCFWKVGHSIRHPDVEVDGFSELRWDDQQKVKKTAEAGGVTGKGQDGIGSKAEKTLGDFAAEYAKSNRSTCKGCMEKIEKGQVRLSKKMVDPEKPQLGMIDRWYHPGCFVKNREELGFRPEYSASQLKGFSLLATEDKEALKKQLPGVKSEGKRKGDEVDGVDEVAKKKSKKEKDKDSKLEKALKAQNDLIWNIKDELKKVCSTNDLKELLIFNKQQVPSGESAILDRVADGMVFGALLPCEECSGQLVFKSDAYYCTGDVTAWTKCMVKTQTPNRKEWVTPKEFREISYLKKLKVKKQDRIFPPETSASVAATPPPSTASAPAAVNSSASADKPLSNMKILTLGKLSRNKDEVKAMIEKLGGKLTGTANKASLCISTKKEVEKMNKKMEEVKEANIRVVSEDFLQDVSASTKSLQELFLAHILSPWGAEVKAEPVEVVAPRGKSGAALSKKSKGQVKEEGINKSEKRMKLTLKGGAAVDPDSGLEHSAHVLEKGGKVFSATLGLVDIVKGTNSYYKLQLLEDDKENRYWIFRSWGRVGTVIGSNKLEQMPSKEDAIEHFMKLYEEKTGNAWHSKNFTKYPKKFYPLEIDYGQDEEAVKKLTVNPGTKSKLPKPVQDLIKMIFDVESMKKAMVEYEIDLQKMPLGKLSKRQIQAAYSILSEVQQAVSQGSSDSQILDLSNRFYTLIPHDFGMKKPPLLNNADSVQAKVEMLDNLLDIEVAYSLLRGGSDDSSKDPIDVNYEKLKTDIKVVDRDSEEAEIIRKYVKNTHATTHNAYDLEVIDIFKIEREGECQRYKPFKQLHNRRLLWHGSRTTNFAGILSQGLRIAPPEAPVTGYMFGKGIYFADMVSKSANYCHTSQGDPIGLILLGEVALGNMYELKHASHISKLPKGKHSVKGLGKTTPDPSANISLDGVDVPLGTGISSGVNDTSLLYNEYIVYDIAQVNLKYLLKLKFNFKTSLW

| SMILES | in vitro SPA assay PARP-1 pIC50 (Human PARP-1 enzyme) | in vitro SPA assay TANK-2 pIC50 (TANK-2 enzyme) | IC50 [1] [nM] | IC50 (Human PARP-1 enzyme; read-out: in vitro SPA assay PARP-1 pIC50 (converted)) [nM] | IC50 (TANK-2 enzyme; read-out: in vitro SPA assay TANK-2 pIC50 (converted)) [nM] |
| --- | --- | --- | --- | --- | --- |
| C[C@@](C#N)(Cc1ccccc1)c1ccc2c3c(c(=O)[nH]c2c1)CCCC3 (single isomer, unassigned) [Co. No. 2] | 7.33 | 7.43 | > 10000 | – | – |
| C[C@](C#N)(Cc1ccccc1)c1ccc2c3c(c(=O)[nH]c2c1)CCCC3 (single isomer, unassigned) [Co. No. 3] | 7.26 | 7.48 | 158 | – | – |
| C[C@@](C#N)(Cc1cccc(F)c1)c1ccc2c3c(c(=O)[nH]c2c1)CCCC3 (single isomer, unassigned) [Co. No. 5a] | 7.80 | 7.40 | > 10000 | – | – |
| C[C@](C#N)(Cc1cccc(F)c1)c1ccc2c3c(c(=O)[nH]c2c1)CCCC3 (single isomer, unassigned) [Co. No. 5b] | 7.44 | 7.47 | 97.7 | – | – |
| CC(C#N)(Cc1cc(Cl)nc(Cl)c1)c1ccc2c3c(c(=O)[nH]c2c1)CCCC3 (stereo not drawn) [Co. No. 9] | 7.20 | 6.35 | 158 | – | – |
| CC(C#N)(Cc1cccc(OC(F)(F)F)c1)c1ccc2c3c(c(=O)[nH]c2c1)CCCC3 (stereo not drawn) [Co. No. 10] | 6.66 | 7.23 | 186 | – | – |
| COc1cccc(CC(C)(C#N)c2ccc3c4c(c(=O)[nH]c3c2)CCCC4)c1 (stereo not drawn) [Co. No. 11] | 7.06 | 7.45 | 155 | – | – |
| Cn1nc(CC(C)(C#N)c2ccc3c4c(c(=O)[nH]c3c2)CCCC4)c2ccccc21 (stereo not drawn) [Co. No. 12] | 7.34 | 7.37 | 178 | – | – |
| Cn1c(CC(C)(C#N)c2ccc3c4c(c(=O)[nH]c3c2)CCCC4)nc2ccccc21 (stereo not drawn) [Co. No. 13] | 7.38 | 7.37 | 269 | – | – |
| COC(=O)c1cccc(CC(C)(C#N)c2ccc3c4c(c(=O)[nH]c3c2)CCCC4)c1 (stereo not drawn) [Co. No. 14] | – | – | 105 | 97.7 | 63.1 |
| CC(C#N)(Cc1cccc(CO)c1)c1ccc2c3c(c(=O)[nH]c2c1)CCCC3 (stereo not drawn) [Co. No. 15] | 7.48 | 7.39 | 229 | – | – |
| CC(C#N)(Cc1cccc(CN)c1)c1ccc2c3c(c(=O)[nH]c2c1)CCCC3 (stereo not drawn) [Co. No. 16] | 6.10 | 7.42 | 417 | – | – |
| CN(CC(C)(C#N)c1ccc2c3c(c(=O)[nH]c2c1)CCCC3)C(=O)c1ccccc1 (stereo not drawn) [Co. No. 18] | – | – | > 10000 | – | – |
| CN(Cc1ccc(C#N)cc1)CC(C)(C#N)c1ccc2c3c(c(=O)[nH]c2c1)CCCC3 (stereo not drawn) [Co. No. 19] | – | 7.19 | 589 | – | – |
